According to patent US4696918A, “Solubilized platinum compound” (Johnson Matthey Public Limited Company, priority 1984, dated 1987):
Where two headings read alike, the source gives them in different places.

What was measured:
[1] = association with α-cyclodextrin by microcalorimetry; assay type: physicochemical
Source text: (§1) We have studied the association constant for the preferred compound according to the invention by a micro-calorimetric method which involves measuring the heat evolved when solutions of the platinum(II) compound and α-cyclodextrin are mixed and also by using a ^1 H n.m.r. spectroscopic approach.
For the microcalorimetry experiments, a solution of the platinum complex (0.02366 mol kg^-1) in water was mixed with a range of aqueous solutions of α-cyclodextrin (ca. 0.01-0.1 mol kg^-1) in a batch calorimeter operating at 25° C. A series of preliminary experiments was performed so that corrections for the contributions arising from the enthalpy of dilution of the two solutes could be made. The expression linking the enthalpy change per mol (ΔH) of Pt(NH3)2.CBDCAto the final molalities of both this guest (G) and the α-cyclodextrin host (H) and to the equilibrium constant (Ka) and the standard enthalpy change (ΔH⊖) for the equilibrium,
H+G.revreaction.H·G,
Ka =ΔH·ΔH⊖ /(ΔH⊖
[H]-ΔH[G])(ΔH⊖ -ΔH) (1)
In the Figure, the filled circles denote experimental points and the line denotes the analysis obtained using Equation (1). It is seen that good correlation is obtained between theory and practice.

[2] = association with α-cyclodextrin by 1H n.m.r. spectroscopy; assay type: physicochemical; conditions: D2O, ca. 22° C.; corrected chemical shifts H-3 and H-a vs fraction bound
Experimental: as §1
For the spectroscopic approach, two types of spectroscopic investigations were performed in D2 O at ca. 22° C. using a Bruker AM250FT Spectrometer. In the first series of experiments, equimolar solutions of Pt(NH3)2.CBDCA and α-cyclodextrin were studied at various dilutions and, in the second series of experiments, the concentration of the platinum complex was kept constant and the concentration of the α-cyclodextrin was varied. When processing the chemical shift data, corrections were made to allow for the tendency of α-cyclodextrin to self-associate. […] The latter was calculated from the equilibrium constant, corrected to the aquamolal scale, obtained from the microcalorimetric measurements.

[3] = distribution of platinum in blood, urine and faeces following intravenous administration; assay type: in vivo, male Wistar albino rats; conditions: rat, 24 hours
in vivo haematotoxicity = assay: in vivo haematotoxicity; set-up: species or system male Wistar albino rats; conditions: rat; for haematotoxicity and nephrotoxicity testing, comparison of the two compounds: blood samples days 1, 4, 8, 12 and 16 after injection, haematocrit, white blood cell counts, plasma urea nitrogen
Source text: (§2) The kidneys were also subjected to histological examination.

kidneys = assay: in vivo nephrotoxicity; set-up: species or system male Wistar albino rats; conditions: rat; for histological examination of the kidneys / plasma urea nitrogen levels / urine protein levels (proteinuria): in vivo; for gross nephrotoxicity: from plasma urea nitrogen
Source text: as §2

[4] = cited from earlier work

Compound	standard entropy change ΔS⊖ ([1]; association with α-cyclodextrin in water, recorded in FIG. 2) [J K^-1 mol^-1]	tendency to associate with α-cyclodextrin ([1]; in water)	standard enthalpy change ΔH⊖ ([1]; in water, 25° C., association with α-cyclodextrin) [kJ/mol]	association (equilibrium) constant Ka ([1]; in water, 25° C., α-cyclodextrin host) [kg/mol]	agreement between n.m.r. and thermodynamic results [2]	faecal levels, Pt excretion [3]	urine levels, Pt excretion [3]	haematotoxicity and nephrotoxicity testing, comparison of the two compounds (in vivo haematotoxicity)	histological examination of the kidneys (kidneys)	plasma urea nitrogen levels (kidneys)	urine protein levels (proteinuria) (kidneys)	gross nephrotoxicity (kidneys)	aqueous solubility (attainable concentration) (water) [mM]	general toxicity ([4]; compared with certain other platinum-containing compounds, particularly cisplatin)	kidney toxicity ([4]; relative to cisplatin)	anaemic and myelosuppressive response (in vivo haematotoxicity; inclusion compound compared with Pt(NH3)2.CBDCA alone)	aqueous solubility (attainable concentration) (aqueous α-cyclodextrin solution)
N.N.O=C([O-])C1(C(=O)[O-])CCC1.[Pt+4] [Pt(NH3)2.CBDCA, 1,1-cyclobutanedicarboxylatediammineplatinum(II)]	-27	very marked tendency to associate with α-cyclodextrin in water	-21.0 ± 2.0	199 ± 10	excellent agreement between the n.m.r. and thermodynamic results	4-5%	65-67%	Results as between the two test compounds were similar	Some nuclear enlargement of the kidneys	remained constant throughout the study period	no obvious proteinuria was observed	no gross nephtrotoxicity	50	relatively non-toxic	reduced dramatically	–	–
inclusion compound of 1,1-cyclobutanedicarboxylatediammineplatinum(II) and α-cyclodextrin	–	–	–	–	–	4-5%	65-67%	Results as between the two test compounds were similar	Some nuclear enlargement of the kidneys	remained constant throughout the study period	no obvious proteinuria was observed	no gross nephtrotoxicity	–	–	–	slightly less anaemic and myelosuppressive response	approximately 200 mM
